In data set [1] the test system is primary human tonsillar lymphocytes. The experiment in a line: Cell viability of primary human tonsillar lymphocytes. It is filed as cell-based. The conditions noted are these: 72 hours, read-out: EC50 of killing of lymphocytes. The protocol: Lymphoma and leukemia cells were cultured in RPMI-1640 (ATCC 30-2001)+10% FBS with antibiotics (100× PenStrep GIBCO #15140122). Primary human fibroblasts were obtained from ATCC (#CRL2522), cultured in DMEM+10% FBS with antibiotics and used at passages 3-5. Primary human tonsillar lymphocytes were a kind gift from M. M. Davis. Cells were routinely checked for mycoplasma and immediately checked upon suspicion. No cultures tested positive.
30,000 cells were plated in 100 μL media per well of a 96 well plate and treated with drug for indicated times and doses. A resazurin-based indicator of cell health (PrestoBlue, ThermoFisher #P50200) was added for 1.5 hours after which the fluorescence ratio at 560/590 nm was recorded. The background fluorescence was subtracted and the signal was normalized to DMSO-treated cells. EC50 measurements on cell lines were done with 4 biological repeats by separate cell passages maintained by 3 independent investigators. Fit of dose-response curves to data and statistical analysis was performed using drc package in R using the four-parameter log-logistic function.
After treatment, mouse tissue was harvested for RNA-seq and histology. […] Serum concentrations after 8 hours were -100 to 400-fold higher than therapeutic doses (FIG. 37, Panel C).

Data set [2] can be described thus: Measurement of serum half life (pharmacokinetics) in mice. It is filed as in vivo. The method, then:
Tests were performed to determine whether JWZ-7-7 is capable of maintaining sufficiently high blood levels for killing SCLC and DLBCL. Formulations for either IV or IP administration were prepared as follows:
• Concentration: 0.6 mg/ml • Composition: 5/5/90 DMSO/Tween80/saline • Dose: 5 μl/g body weight • Appearance: clear solution Formulation #2—Used for IP Animals • Concentration: 1 mg/ml • Composition: 5/5/90 DMSO/Tween80/saline • Dose: 10 μl/g body weight • Appearance: clear solution
After either IV or IP injection of 3 mice each with either 3 mg/Kg (IV) or 10 mg/Kg(IP), the levels of JWZ-7-7 were measured at the indicated intervals. The calculated T1/2 is 4.47 hours for IV injection and 5.63 hours for […].

In another data set the test system is DMS-79. Nature of the data set: Dose response on viability of small cell lung cancer line, resazurin assay. Type of data set: cell-based. As to conditions: Homo sapiens; DMS-79, 72 h treatment. The method, then:
(§1) IC50 of JWZ-7-7, BI-3812, JQ1, and combinations were calculated based on a dose response curve on three small cell lung cancer lines (FIG. 5). The dose response curve on viability was performed in technical replicates and biological triplicate after treating cells for 72 hours across a broad range of concentrations via serial dilutions. Viable cells were measured after treatment via a resazurin assay. The signal for viable assays was normalized to the DMSO treated negative control. A four-parameter non-linear fit was performed to fit a curve to calculate the IC50 for each of the cell lines. The table below describes the calculated IC50 across JWZ-7-7, JQ1, BI-3812 and combination of JQ1 and BI-3812 after 72 h treatment in technical replicates and biological triplicates.

The subject of another data set is NCI-H2196. The description is as above. As to conditions: Homo sapiens; NCI-H2196, 72 h treatment. It is filed as cell-based. The protocol:
as §1

In the next data set the test system is NCI-H1105. The data set is described as above. It is filed as cell-based. The conditions noted are these: NCI-H1105, 72 h treatment; read-out: IC50. The protocol: as §1
Setting [3] is: mouse, 3 mg/Kg IV, individual mice and Avg., 3 mg/kg.
[4] abbreviates: mouse, 3 mg/Kg IV, individual mice and Avg., 3 mg/kg, mean.
The mark [5] stands for this setting: mouse, 10 mg/Kg IP, individual mice and Avg., 10 mg/kg.
Where [6] appears, read: mouse, 10 mg/Kg IP, individual mice and Avg., 10 mg/kg, mean.

Several values for one entry are separate records, joined by “and”; a condition that tells them apart may be missing. Equal entries are not always repeated. Where two headings read alike, the source gives them in different places.

Usually EC50 stands for the concentration needed to bring the measured effect to its halfway point. On to `CNC(=O)COc1cc2cc(Nc3nc(N4CCC(C(=O)NCCCCCCCNC(=O)C[C@@H]5N=C(c6ccc(Cl)cc6)c6c(sc(C)c6C)-n6c(C)nnc65)CC4)ncc3Cl)cc(OC)c2n(C)c1=O` [TCIP1], for which the EC50 in data set [1] stood at 0.21 µM.

By half-life is commonly meant how long it takes for the measured level to halve. High values mean slow loss, low ones fast loss. The term Cmax denotes the highest concentration seen after dosing. The term Tmax denotes the time from dosing to the highest level. By IC50 is commonly meant the concentration that gives 50% inhibition. On to `CNC(=O)COc1cc2cc(Nc3nc(N4CCC(C(=O)NCCCCCCCNC(=O)C[C@@H]5N=C(c6ccc(Cl)cc6)c6c(sc(C)c6C)-n6c(C)nnc65)CC4)ncc3Cl)cc(OC)c2n(C)c1=O` [JWZ-7-7, (S)-1-(5-chloro-4-((8-methoxy-1-methyl-3-(2-(methylamino)-2-oxoethoxy)-2-oxo-1,2-dihydroquinolin-6-yl)amino)pyrimidin-2-yl)-N-(7-(2-(4-(4-chlorophenyl)-2,3,9-trimethyl-6H-thieno[3,2-f][1,2,4]triazolo[4,3-a][1,4]diazepin-6-yl)acetamido)heptyl)piperidine-4-carboxamide], for which the half-life was 5.63 h in data set [2] (C57BL/6, mouse, serum, ip, 10 mg/kg, 10 mg/Kg IP, individual mice and Avg.); 4.47 h in data set [2] (mouse, serum, iv, 3 mg/kg, 3 mg/Kg IV, individual mice and Avg.). Moreover, in data set [2] (mouse), the Stability in serum entry is “stable in serum”. In addition, the “AUC% Extrap” value was 6.66% and 9.35% and 9.79% in data set [2] (setting [3]); 8.60% in data set [2] (setting [4]); 42.22% and 42.00% and 38.85% in data set [2] (setting [5]); 41.03% in data set [2] (setting [6]). Moreover, the AUCINF_obs in data set [2] (setting [3]) is 797713 ng·min/mL and 444167 ng·min/mL and 988029 ng·min/mL; in data set [2] (setting [4]), 743303 ng·min/mL; in data set [2] (setting [5]), 174254 ng·min/mL and 349182 ng·min/mL and 315593 ng·min/mL; in data set [2] (setting [6]) it was 279676 ng·min/mL. Moreover, the AUClast in data set [2] (setting [3]) was 744580 min*ng/mL and 12.11 μM · hr and 402652 min*ng/mL and 6.55 μM · hr and 891309 min*ng/mL and 14.50 μM · hr; in data set [2] (setting [4]) it was 679514 min*ng/mL and 11.06 μM · hr; in data set [2] (setting [5]), 100685 min*ng/mL and 1.64 μM · hr and 202511 min*ng/mL and 3.29 μM · hr and 192976 min*ng/mL and 3.14 μM · hr; in data set [2] (setting [6]), 165391 min*ng/mL and 2.69 μM · hr. Besides, the CI_obs in data set [2] (setting [3]) is 0.228 L/h/kg and 0.408 L/h/kg and 0.18 L/h/kg; in data set [2] (setting [4]), 0.27 L/h/kg. The highest concentration (Cmax) in data set [2] (setting [3]) is 31.1 µg/mL and 14.5 µg/mL and 36.5 µg/mL; in data set [2] (setting [4]), 27.367 µg/mL; in data set [2] (mouse, 3 mg/Kg IV, individual mice and Avg., 3 mg/kg, mean, read-out: Cmax) it was 26.7 µM; in data set [2] (mouse, 3 mg/Kg IV, individual mice and Avg., 3 mg/kg, read-out: Cmax), 30.4 µM and 14.2 µM and 35.6 µM; in data set [2] (setting [5]) it was 0.389 µg/mL and 0.805 µg/mL and 0.885 µg/mL; in data set [2] (setting [6]), 0.693 µg/mL. Moreover, the highest concentration (Cmax) is 0.68 µM in data set [2] (mouse, 10 mg/Kg IP, individual mice and Avg., 10 mg/kg, mean, read-out: Cmax); 0.38 µM and 0.79 µM and 0.86 µM in data set [2] (mouse, 10 mg/Kg IP, individual mice and Avg., 10 mg/kg, read-out: Cmax). The MRTINF_obs in data set [2] (setting [3]) was 2.39 h and 2.14 h; in data set [2] (setting [4]) it was 2.04 h. For the same compound, the T1/2 in data set [2] (setting [3]) is 3.74 h and 3.93 h and 5.73 h; in data set [2] (setting [5]), 5.48 h and 6.32 h and 5.08 h. For the same compound, the Vss_obs is 0.36 L/kg and 0.97 L/kg and 0.39 L/kg in data set [2] (setting [3]); 0.57 L/kg in data set [2] (setting [4]). Besides, the Cl_obs is 3.44 L/h/kg and 1.72 L/h/kg and 1.9 L/h/kg in data set [2] (setting [5]); 2.35 L/h/kg in data set [2] (setting [6]). In addition, the Tmax was 0.50 h and 1.00 h in data set [2] (setting [5]); 0.53 h in data set [2] (setting [6]); 0.08 h in data set [2] (mouse, serum, iv, 3 mg/kg, 3 mg/Kg IV, individual mice and Avg., read-out: Tmax). Besides, the MRT inf in data set [2] (mouse, serum, iv, 3 mg/kg, 3 mg/Kg IV, individual mice and Avg., read-out: MRTINF_obs) turned out to be 1.59 h. Besides, the IC50 was 0.066 µM in the data set with DMS-79, 0.081 µM in the data set on NCI-H2196 and 0.075 µM in the data set with NCI-H1105.
